# According to patent US5462954A, “Substituted phenyl phenol leukotriene antagonists” (Eli Lilly and Company, priority 1994, dated 1995):
# Key:
# [1] = target: T1, human synovial phospholipase A2 (PLA2) (Homo sapiens, UniProt P14555); assay: in vitro inhibition of human synovial phospholipase A2 (PLA2); type: biochemical
# T1 sequence (P14555 21-144): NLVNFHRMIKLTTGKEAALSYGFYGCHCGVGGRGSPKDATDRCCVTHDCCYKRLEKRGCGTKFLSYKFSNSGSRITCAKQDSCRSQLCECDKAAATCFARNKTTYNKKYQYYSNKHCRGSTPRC
# [2] = target: T2, human cytosolic phospholipase A2 (PLA2) (Homo sapiens, UniProt P47712); assay: in vitro inhibition of human cytosolic phospholipase A2 (PLA2); type: biochemical
# T2 sequence (P47712 1-749): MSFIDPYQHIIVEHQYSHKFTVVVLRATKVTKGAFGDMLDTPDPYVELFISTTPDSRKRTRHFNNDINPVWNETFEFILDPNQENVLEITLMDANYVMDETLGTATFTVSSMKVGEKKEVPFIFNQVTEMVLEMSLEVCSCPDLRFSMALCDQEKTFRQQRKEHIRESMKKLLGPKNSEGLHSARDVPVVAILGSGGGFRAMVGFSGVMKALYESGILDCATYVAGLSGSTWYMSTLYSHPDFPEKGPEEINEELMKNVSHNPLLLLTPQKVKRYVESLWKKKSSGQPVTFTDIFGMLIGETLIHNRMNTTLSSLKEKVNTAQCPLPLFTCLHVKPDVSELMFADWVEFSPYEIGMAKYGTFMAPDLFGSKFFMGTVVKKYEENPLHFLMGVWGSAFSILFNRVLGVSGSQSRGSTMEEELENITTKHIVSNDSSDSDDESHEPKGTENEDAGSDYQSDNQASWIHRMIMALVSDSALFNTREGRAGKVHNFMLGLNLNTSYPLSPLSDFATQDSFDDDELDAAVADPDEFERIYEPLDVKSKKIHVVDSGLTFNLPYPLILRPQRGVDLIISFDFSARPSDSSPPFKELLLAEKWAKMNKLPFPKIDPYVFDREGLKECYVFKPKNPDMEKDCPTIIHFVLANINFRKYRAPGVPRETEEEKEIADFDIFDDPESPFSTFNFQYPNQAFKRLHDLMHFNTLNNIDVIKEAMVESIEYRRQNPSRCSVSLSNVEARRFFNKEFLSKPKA
# [3] = target: binding of tritiated LTB4 to guinea pig lung membranes (Cavia porcellus, UniProt H0VYV8); assay: biochemical; settings: read-out: pKi (mean -log Ki) (converted)
# Sequence of binding of tritiated LTB4 to guinea pig lung membranes (H0VYV8 1-348): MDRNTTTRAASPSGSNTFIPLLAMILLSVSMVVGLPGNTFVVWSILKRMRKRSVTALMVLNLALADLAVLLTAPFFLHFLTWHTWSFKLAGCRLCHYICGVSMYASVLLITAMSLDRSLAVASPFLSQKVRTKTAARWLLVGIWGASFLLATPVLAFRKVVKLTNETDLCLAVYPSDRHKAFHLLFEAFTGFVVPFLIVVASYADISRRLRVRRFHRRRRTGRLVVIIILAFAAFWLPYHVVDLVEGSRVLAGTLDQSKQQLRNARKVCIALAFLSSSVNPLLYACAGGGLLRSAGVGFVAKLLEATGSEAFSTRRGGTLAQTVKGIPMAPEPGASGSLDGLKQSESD
# Description: The effectiveness of compounds of Formula I to inhibit the binding of tritiated LTB4 to guinea pig lung membranes was determined as follows.
# The binding reaction was terminated by the addition of 1 mL ice cold wash buffer (25 mM Tris-HCl, pH 7.5) followed immediately by vacuum filtration over Whatman GF/C glass fiber filters using a Brandel (Gaithersburg, Md.) 48 place harvester. The filters were washed three times with 1 mL of wash buffer. Retained radioactivity was determined by liquid scintillation counting at 50% counting efficiency using Ready Protein Plus cocktail (Beckman, Fullerton, Calif.). Nondisplaceable binding was determined in the presence of 1 μM LTB4 and was usually less than 10% of total binding. […] The data reported below is the mean -log Ki, otherwise known as the pKi, for n experiments.
Structure (SMILES),inhibition of human synovial PLA2 [1],inhibition of human cytosolic PLA2 [2],Ki [3] [nM]
CCc1cc(-c2ccccc2)c(O)cc1OCCCCCC(C)(C)c1nn[nH]n1.[Na],in vitro inhibitors,in vitro inhibitors,–
"CCCc1c(OCCCOc2cc(O)c(-c3ccccc3)cc2CC)cccc1OC(C)C(=O)O (stereo not shown) [Example 56, 2-[3-[3-[(5-Ethyl-2-hydroxy[1,1'-biphenyl]-4-yl)oxy]propoxy]-2-propylphenoxy]propanoic acid]",in vitro inhibitors,in vitro inhibitors,9.33
"CCCc1c(OCCCOc2cc(O)c(-c3ccc(F)cc3)cc2CC)ccc2c1OC(C(=O)O)CC2 (stereo not shown) [Example 55, 8-Propyl-7-[3-[4-(4-fluorophenyl)-2-ethyl-5-hydroxyphenoxy]propoxy]-3,4-dihydro-2H-1-benzopyran-2-carboxylic acid]",in vitro inhibitors,in vitro inhibitors,2.95

# Continued, values first:
inhibition of human synovial PLA2 [1],inhibition of human cytosolic PLA2 [2],Ki [3] [nM],Structure (SMILES)
–,–,3.47,"CCc1cc(-c2ccc(F)cc2)c(O)cc1OCCCOc1ccc2c(=O)c3ccccc3oc2c1CCC(=O)O [Example 68, 3-[4-[9-Oxo-3-[3-[2-ethyl-4-(4-fluorophenyl)-5-hydroxyphenoxy]propoxy]-9H-xanthene]]propanoic acid]"
–,–,3.72,"CCc1cc(-c2ccc(F)cc2)c(O)cc1OCCCCOc1ccccc1CCC(=O)O [Example 23, 3-(2-(4-(2-Ethyl-4-(4-fluorophenyl)-5-hydroxyphenoxy)butyloxy)phenyl)propionic acid]"
